Patent US10596139B2 (CHASE PHARMACEUTICALS CORPORATION, priority 2015, dated 2020)

Key:
Male Swiss mice [1] = assay: Antagonism of xanomeline-induced diarrhea in mice by oxybutynin (fecal pellet count); format: in vivo; settings: oxybutynin i.p. 0.3 to 30 mg/kg, 30 minutes before xanomeline 30 mg/kg
Description: Male Swiss mice (4-6 weeks old), N=10 per treatment group were used.
Mice were placed individually in cages without any bedding materials. During the experiment the number of fecal pellets was counted at different time-points as outlined below:
T0: administration of oxybutinin.
T30 min: administration of vehicle or xanomeline.
T 30 min to T 2.5 h: counting of accumulated fecal pellets excreted.
T+2.5 h to T+4.5 h: counting of accumulated fecal pellets excreted.
The total number of fecal pellets for each mouse was counted over time. An analysis of variance (ANOVA) was performed on the results. Fisher's Protected Least Significant Difference was used for pairwise comparisons. The p value≤0.05 were considered significant. Grubbs' test (http//www at graphpad.com/quickcalcs/Grubbs1.cfm) was used to detect outliers for each parameter in each experimental group.

Male Swiss mice [2] = assay: T-maze continuous alternation task (T-CAT) with oxybutynin and xanomeline; format: in vivo
Description: Evaluation of Cognition with Oxybutynin and Xanomeline in the T-maze Alternation Task in Mice
The T-maze continuous alternation task (T-CAT) is useful as model for studying compounds with cognitive enhancing properties. The T-maze consists of 2 choice arms and 1 start arm mounted to a square center. Manual doors are provided to close specific arms during the force choice alternation task.
Mice were randomly assigned to one of the different experimental treatment groups. Each animal was identified by its group name, cage number, series (day) of experiment, and number (1 to 10) written with permanent ink on the tail.
The T-maze apparatus is made of gray Plexiglas with a main stem (55 cm long[…]10 cm wide[…]20 cm high) and two arms (30 cm long[…]10 cm wide[…]20 cm high) positioned at 90 degree angle relative to the main stem. A start box (15 cm long[…]10 cm wide) is separated from the main stem by a guillotine door. Horizontal doors are also provided to close specific arms during the force choice alternation task. […]
The percentage of alternation over the 14 free-choice trials was determined for each mouse and was used as an index of working memory performance. […]
Analysis of variance (ANOVA) was performed on the results. […] The drug-induced improvement of memory was calculated by setting the respective response of the saline/vehicle as 100% and that of the test group as 0% reversion. […]

[3] = test system: patients with Alzheimer disease; settings: cited from earlier work
[4] = test system: healthy volunteers and Alzheimer's patients; settings: cited from earlier work
Male Swiss mice [5] = assay: Dose-response to xanomeline in a mouse model of diarrhea (fecal pellet count); format: in vivo; settings: xanomeline i.p. 0.3 to 30 mg/kg
Description: Study 1—Establishment of the Dose-Response to Xanomeline in a Mouse Model of Diarrhea.
Male Swiss mice (4-6 weeks old), N=10 per treatment group were used, and treated intra-peritoneally (i.p.) with either vehicle (vehicle group) or increasing doses of xanomeline, a representative muscarinic agonist. Mice were randomly assigned to one of two experimental groups (vehicle; or increasing doses of xanomeline). Each animal was identified by its group name, cage number, series (day) of experiment, and number (1 to 10) written with permanent ink on the tail.
Mice were placed individually in cages without any bedding materials. During the experiment the number of fecal pellets were counted at different time-points, starting one hour before the time of the administration of the test compound (T0), as outlined below:
T−1 h to T0: counting of the accumulated fecal pellets excreted.
T0: administration of the test compound.
T0 to T+2 h: counting of the accumulated fecal pellets excreted.
T+2 h to T+4 h: counting of the accumulated fecal pellets excreted.
The total number of fecal pellets for each mouse was counted over time. An analysis of variance (ANOVA) was performed on the results. Fisher's Protected Least Significant Difference was used for pairwise comparisons; p values≤0.05 were considered significant. […]

Row | SMILES | antagonism of diarrhea induced by xanomeline (Male Swiss mice [1]) | ability to perform the T-maze test after pretreatment (Male Swiss mice [2]; i.p. oxybutynin pretreatment 30 minutes before xanomeline) | cognitive and behavioral symptoms of Alzheimer disease ([3]; compared to placebo, 6 months) | side effects (bradycardia, gastro-intestinal distress, excessive salivation, sweating) ([3]; patients with Alzheimer disease) | discontinuation rate ([4]; Alzheimer's patient population) | dose tolerated by some individuals ([4]; oral, taken with food) | maximal tolerated dose ([4]; orally administered) | maximal tolerated dose per day ([4]; orally administered) | diarrhea (number of fecal pellets) (Male Swiss mice [5]) | ability to perform the T-maze test at the higher dose (Male Swiss mice [2]; i.p. xanomeline, higher dose (dose that caused diarrhea))
1 | CCN(CC)CC#CCOC(=O)C(O)(c1ccccc1)C1CCCCC1 (stereo not shown) [oxybutynin, 4-diethylaminobut-2-ynyl 2-cyclohexyl-2-hydroxy-2-phenylethanoate] | dose-dependently antagonized the diarrhea induced by xanomeline | restored the animals' ability to perform the T-maze test |  |  |  |  |  |  |  | 
2 | CCCCCCOc1nsnc1C1=CCCN(C)C1 [xanomeline, 3-(4-hexyloxy-1,2,5-thiadiazol-3-yl)-1-methyl-5,6-dihydro-2H-pyridine] |  |  | significantly improve cognitive and behavioral symptoms of Alzheimer disease | dose-dependent unacceptable side effects | higher than 50% | 110 mg three times/day | 75 mg three times/day | 225 mg/day | dose-dependently causes diarrhea | too sick to perform the test
